Reference: patent publication US20170216315A1 (priority 2016, published 2017)
Marks after values point to notes of the source that are not given here.

Key:
male C57BL/6 mice [1] = assay: Amounts of TAG and TC in liver; assay type: in vivo; conditions: EK100 1, 5, 10 mg/kg/day vs EtOH group; p<0.05; FIG. 2B
male C57BL/6 mice [2] = assay: Amounts of TAG, TC and bile acid in feces; assay type: in vivo; conditions: EK100 1, 5, 10 mg/kg/day vs EtOH group, feces of end of week 3, p<0.05
[3] = test system: LXR-α, SREBP-1c, ACC, FAS, ME; assay: Expressions of lipid synthesis-related genes in liver (real-time PCR); assay type: in vivo, mice; conditions: EK100 1, 5, 10 mg/kg/day vs EtOH group, p<0.05, FIG. 4
Description: C-4 was put into a 0.8 ml RNAlater containing an RNA stabilizer (Qiagen company, United States), and then the commercial kit (E.Z.N.A™ Tissue RNA kit, purchased from Omega Bio-Tek company, United States) was used to extract the mRNA therein. After that, the mRNA sample obtained therefrom was reverse transcribed to provide cDNA, and then specific primers (as shown in Table 2) were used to conduct real-time polymerase chain reaction (real-time PCR) of the cDNA to observe the expression of each gene in the mouse liver, wherein the operation steps of the real-time polymerase chain reaction were as follows: (i) 2 μl of cDNA (50 ng/μl), 5 μl of SYBR Green (Molecular Probes company, United States, Applied Biosystems/Fast SYBR® Green Master Mix), 2 μl of RNase-free water, 1 μl of forward primer, and 1 μl of reverse primer were well mixed and then centrifuged; (ii) the above sample was put into a real-time polymerase chain reaction system (Applied Biosystems/StepOne Real time PCR system) to detect the expression of each gene, wherein the expression of GAPDH was used as the […] control.
It has been known that LXR-α, SREBP-1c, ACC, FAS, ME, etc. are genes related to lipid synthesis, thus, the expressions of the above genes in mouse liver of each group were compared by the analysis method of [Preparation Examples] D-2.

[4] = test system: PPAR-α, RXR-α, CPT1, UCP2; assay: Expressions of fatty acid β-oxidation-promoting genes in liver (real-time PCR); assay type: in vivo, mice; conditions: EK100 1, 5, 10 mg/kg/day vs EtOH group, p<0.05, FIG. 5
Description: (§1) C-4 was put into a 0.8 ml RNAlater containing an RNA stabilizer (Qiagen company, United States), and then the commercial kit (E.Z.N.A™ Tissue RNA kit, purchased from Omega Bio-Tek company, United States) was used to extract the mRNA therein. After that, the mRNA sample obtained therefrom was reverse transcribed to provide cDNA, and then specific primers (as shown in Table 2) were used to conduct real-time polymerase chain reaction (real-time PCR) of the cDNA to observe the expression of each gene in the mouse liver, wherein the operation steps of the real-time polymerase chain reaction were as follows: (i) 2 μl of cDNA (50 ng/μl), 5 μl of SYBR Green (Molecular Probes company, United States, Applied Biosystems/Fast SYBR® Green Master Mix), 2 μl of RNase-free water, 1 μl of forward primer, and 1 μl of reverse primer were well mixed and then centrifuged; (ii) the above sample was put into a real-time polymerase chain reaction system (Applied Biosystems/StepOne Real time PCR system) to detect the expression of each gene, wherein the expression of GAPDH was used as the positive control.
Therefore, the expressions of the above genes in the mouse liver of each group were compared by the analysis method of [Preparation Examples]

[5] = test system: alanine aminotransferase (ALT); assay: Activity of ALT in serum; assay type: in vivo, mice; conditions: EK100 5 and 10 mg/kg/day (EK100_5X, EK100_10X) vs EtOH group; p<0.05; FIG. 8
Description: It has been known that both aspartate aminotransferase (AST) and alanine aminotransferase (ALT) are amino acid metabolic enzymes, which are widely present in the heart, liver, skeletal muscle, kidney and brain. When cells in organs are injured, AST and ALT will be released into the blood. Therefore, the activities of AST and ALT can be used as the injury markers of the above organs to detect organ injuries, wherein the higher activities of AST and ALT represent that organ injuries are more serious. For example, there is much more ALT in the liver. A higher activity of ALT in the liver would indicate a more serious injury.
To understand the effects of alcohol consumption and ergostatrien-3β-ol intake on the injury conditions of mice organs, mouse serum samples of each group provided in [Preparation Examples] C-2 (200 μl per group) were placed into automatic dry-biochemistry analyzer (Arkray, Inc., Japan, Spotechem™ EZ, SP-4430) with AST/ALT expert analytic test paper (Arkray, Inc., Japan, Spotechem™ II) to detect the activities of AST and ALT.

[6] = test system: glutathione peroxidase (GPx); assay: Activity of GPx in mouse liver; assay type: in vivo, mice; conditions: for Activity of GPx: liver homogenate, alcoholic liquid diet, 4 weeks
[7] = test system: TLR4, MyD88, NF-κB, iNOS, COX-2, α-SMA; assay: Expressions of pro-inflammatory genes in liver (real-time PCR); assay type: in vivo, mice; conditions: EK100 1, 5, 10 mg/kg/day vs EtOH group, p<0.05, FIG. 10
Description: as §1

male C57BL/6 mice [8] = assay: Hepatitis histological activity index (HAI score); assay type: in vivo; conditions: EK100 1, 5, 10 mg/kg/day vs EtOH group; p<0.05; FIG. 11
Description: To further observe the inflammation of mouse liver, the internationally accepted hepatitis histological activity index (HAI score) was used to categorize the hepatitis activity into the portal zone, lobuli hepatis zone, and periportal zone, which were scored with 0 to 10 points (as shown in Table 8). […] J Insur Med. 33: 110-113 (2001),” which is incorporated herein for reference.

ADH, ALDH, CYP2E1, CAT = assay: Gene expressions of alcohol metabolism-related enzymes in liver (real-time PCR); assay type: in vivo, mice; conditions: EK100 1, 5, 10 mg/kg/day vs EtOH group; p<0.05; FIG. 12
Description: as §1
The expressions of alcohol metabolism-related enzymes (i.e., ADH, ALDH, CYP2E1, and CAT) in mouse liver of each group were compared by the analysis method of [Preparation Examples]

[9] = test system: alcohol dehydrogenase (ADH); assay: Activity of ADH in liver homogenate; assay type: in vivo, mice; conditions: EK100 1, 5, 10 mg/kg/day vs control or EtOH group; p<0.05; FIG. 14A
Description: D-3 were analyzed. The operation steps were as follows: (i) 50 μl of liver homogenate, 50 μl of phosphate-buffered saline (PBS), and 1 ml of 0.1 M glycine-NaOH buffer (pH 10.8, 10 mM NAD^+) were well mixed; the mixture was left standing in the dark at room temperature for 4 minutes; and then the absorbance (A) of the mixture was measured at 340 nm wavelength; (ii) 50 μl of liver homogenate, 50 μl of phosphate-buffered saline (PBS), and 1 ml of 0.1 M glycine-NaOH buffer (pH 10.8, 10 mM NAD^+, 0.016 M ethanol) were well mixed; the mixture was left standing in the dark at room temperature for 4 minutes; and then the absorbance (B) of the mixture was measured at 340 nm wavelength; (iii) absorbance (A) and absorbance (B) were substituted into formula 2 below to calculate the activity of ADH (μmole/min/mg protein).

male C57BL/6 mice [10] = assay: TBARS value of liver homogenate; conditions: for TBARS value: liver homogenate, alcoholic liquid diet, 4 weeks
male C57BL/6 mice [11] = assay: Amount of glutathione (GSH) in liver homogenate; conditions: for Amount of GSH: liver homogenate, alcoholic liquid diet, 4 weeks
[12] = EK100 1, 5, 10 mg/kg/day vs EtOH group, p<0.05

## CC(C)[C@@H](C)/C=C/[C@@H](C)[C@H]1CC[C@H]2C3=CCC4C[C@@H](O)CC[C@]4(C)C3=CC[C@]12C (stereo partly shown) [EK100]
Male C57BL/6 mice [1]
  Amount of TAG in liver compared to EtOH: significantly decreased
  Amount of TC in liver compared to EtOH: significantly decreased
Male C57BL/6 mice [2]; FIG. 2C
  Amount of TAG in feces compared to EtOH: significantly increased
  Amount of TC in feces compared to EtOH: significantly increased
Male C57BL/6 mice [2]; FIG. 3
  Amount of bile acid in feces compared to EtOH: significantly increased
[3]
  Expressions of lipid synthesis-related genes in liver compared to EtOH: significantly decreased
[4]
  Expressions of fatty acid β-oxidation-promoting genes in liver compared to EtOH: significantly increased
[5]
  Activity of ALT in serum compared to EtOH: significantly decreased
[6]; EK100 10 mg/kg/day (EK100_10X) vs EtOH group, p<0.05
  Activity of GPx in liver compared to EtOH: significantly increased
[6]; EK100_1X: 1 mg/kg/day gavage
  Activity of GPx: 114.16 ± 2.40^b unit/mg protein
[6]; EK100_5X: 5 mg/kg/day gavage
  Activity of GPx: 110.74 ± 3.52^b unit/mg protein
[6]; EK100_10X: 10 mg/kg/day gavage
  Activity of GPx: 131.89 ± 6.83^a unit/mg protein
[7]
  Expressions of pro-inflammatory genes in liver compared to EtOH: significantly decreased
Male C57BL/6 mice [8]
  HAI score of periportal inflammation (necrosis) compared to EtOH: significantly decreased
  HAI score of portal inflammation compared to EtOH: significantly decreased
ADH, ALDH, CYP2E1, CAT
  Gene expression of ADH in liver compared to EtOH: significantly increased
  Gene expression of ALDH in liver compared to EtOH: significantly increased
  Gene expression of CAT in liver compared to EtOH: significantly increased
  Gene expression of CYP2E1 in liver compared to EtOH: significantly decreased
[9]
  Activity of ADH in liver compared to control or EtOH: significantly increased
Male C57BL/6 mice [10]; [12]
  TBARS value of liver compared to EtOH: significantly decreased
Male C57BL/6 mice [10]; EK100_1X: 1 mg/kg/day gavage
  TBARS value: 0.56 ± 0.04^b nmol malondialdehyde/mg protein
Male C57BL/6 mice [10]; EK100_5X: 5 mg/kg/day gavage
  TBARS value: 0.54 ± 0.05^b nmol malondialdehyde/mg protein
Male C57BL/6 mice [10]; EK100_10X: 10 mg/kg/day gavage
  TBARS value: 0.46 ± 0.04^b nmol malondialdehyde/mg protein
Male C57BL/6 mice [11]; [12]
  Amount of GSH in liver compared to EtOH: significantly increased
Male C57BL/6 mice [11]; EK100_1X: 1 mg/kg/day gavage
  Amount of GSH: 49.08 ± 4.78^b nmol/mg protein
Male C57BL/6 mice [11]; EK100_5X: 5 mg/kg/day gavage
  Amount of GSH: 71.14 ± 4.17^a nmol/mg protein
Male C57BL/6 mice [11]; EK100_10X: 10 mg/kg/day gavage
  Amount of GSH: 77.21 ± 2.95^a nmol/mg protein
